Key:
C3H10T1/2 cells = assay: alkaline phosphatase activity in C3H10T1/2 cells after 4 days of treatment; type: cell-based; details: 1 μM
Description: [drawing 19] (In Oxy133 the 6-hydroxyl group is more reactive toward succinic anhydride than the 3-hydroxyl.) The resulting conjugate, OXY149, retains most of the osteogenic activity of the parent Oxy133 in C3H10T1/2 cells determined by the level of induction of osteogenic differentiation marker, alkaline phosphatase activity after 4 days of treatment (Control: 2±1; Oxy133 (1 μM): 390±10; Oxy149 (1 μM): 100±12; Oxy149 (5 μM): 500±18; Oxy149 (10 μM); 480±12; Oxy149 (20 μM): 470±25). BTA-linker 1 can be attached via the 3- and/or 6-positions of OXY133 using tunable linker attachments.

[1] = half-life in human liver microsomes; type: in vitro ADME; details: read-out: half-life in human liver microsomes (HLM)
Excerpt: Naturally-occurring oxysterols, 20(S)-hydroxycholesterol, 22(S)-hydroxycholesterol and 22(R)-hydroxycholesterol can be used as potential osteogenic agents (Kha; Richardson; Amantea). A series of potent osteogenic oxysterol analogues was identified, which are efficacious both in vitro and in vivo. Members of this family of semi-synthetic oxysterols induce robust bone formation and spine fusion in rats when applied locally between transverse processes via a collagen sponge (T. S. Johnson). The compound OXY133 is an analog in the series with enhanced osteogenic activity (FIG. 1) (Montgomery). Oxy133 can induce osteogenesis in cultured human primary mesenchymal stem cells and induce spine fusion in rats in an accelerated manner compared to other analogues. Oxy133 can induce robust osteogenesis in non-rodent models of bone disease such as rabbit spine fusion and rabbit calvarial defect models. Oxy133 is a drug development candidate for local administration with potential application in spine fusion and repair of non-union fractures. […] Furthermore, due to the possible mechanism of osteogenesis, a transient activation of the Hh-pathway in MSCs, increasing selectivity for bone tissue while minimizing the exposure to other tissues may be prudent. This can be accomplished by linking a bone targeting agent (BTA) to the oxysterol molecule that selectively delivers it to bone.

[2] = system: M2-10B4 bone marrow stromal cells; assay: osteogenic differentiation / ALP enzymatic activity in M2-10B4 bone marrow stromal cells; type: cell-based; details: M2-10B4 cells; for ALP Activity: ± SD; for EC50: read-out: EC50 based on activation of ALP
Description: Osteogenic differentiation was assessed by the induction of alkaline phosphatase (ALP) enzymatic activity, as well as induced expression of osteogenic differentiation marker genes ALP, bone sialoprotein (BSP), and osterix (OSX).

[3] = in vitro hydroxyapatite (HAP) binding assay; details: for % Binding to Hydroxyapatite: 20 μM analyte, HAP 50 mg/mL, 50 mM Tris-HCl pH 7.5, 20% DMSO, 10 minutes; for binding to HAP (in words): in vitro, estradiol at 20 μM
Description: An in vitro HAP binding assay was conducted as follows. A 1 mM solution of each analyte was made in 100% dimethylsulfoxide (DMSO). A further dilution was then made to form a 20 μM solution of each analyte in 50 mM Tris-HCl Buffer at pH 7.5 with 20% DMSO. […] The HAP concentration used was 50 mg/mL.
For each analyte, samples were prepared in triplicate. The control samples (1 mL of 20 μM analyte) were transferred into a microcentrifuge tube. To a second set of samples (1 mL of 20 μM analyte) in a microcentrifuge tube was added 50 mg of HAP. The samples were vortexed, gently mixed with inversion for 10 minutes at room temperature, and then centrifuged at 4,400 rpm for 2 minutes to sediment the HAP contained in the samples. The supernatant was transferred to another set of microcentrifuge tubes.
An electronic spectral scan (ultraviolet-visible) from 220-520 nm was obtained for each analyte using a Bio-Rad Smart-Spec 3000. The blank was 50 mM Tris-HCl Buffer, pH 7.5, 20% DMSO. The wavelength of maximum absorbance (λmax) was determined, and the extinction coefficient (ε) was calculated using the Beer-Lambert Law.
The absorbance of the samples incubated with HAP was measured at λmax and the molar concentration of the analyte was then determined using the Beer-Lambert Law and the previously calculated ε. The concentration of the analytes 17β-estradiol, Oxy149, Oxy153, and Oxy155 without and with contact with HAP is shown in FIG. 10.
The fraction of analyte absorbed to HAP for each sample was subsequently calculated using the following formula for % binding, (Ho−H)/Ho*100=% binding with Ho being the mean concentration of control samples and H being the mean calculated concentration of samples treated with HAP.

Hedgehog (Hh) signaling = assay: Hedgehog signaling activation: expression of Hh target genes Ptch and HIP in M2-10B4 cells; type: cell-based
Description: The expression of Ptch gene in M2-10B4 cells in vitro 4 days after initial contact with each oxysterol at a concentration of 1 μM is shown in FIG. 8. The expression of HIP gene in M2-10B4 cells in vitro 4 days after initial contact with each oxysterol at a concentration of 1 μM is shown in FIG. 9.

[4] = oxysterol + cyclopamine (Cyc; 5 μM)

Structure (SMILES) | alkaline phosphatase activity (C3H10T1/2 cells) | half-life [1] | ALP Activity ([2]; oxysterol 1 μM) | ALP Activity [2, 4] | % Binding to Hydroxyapatite [3] | binding to HAP (in words) [3] | activation of Hedgehog (Hh) signaling by induced expression of Ptch and HIP (Hedgehog (Hh) signaling) | osteogenic differentiation (ALP activity, ALP, BSP, OSX gene expression) [2] | EC50 [2]
CCCCCC[C@](C)(O)[C@H]1CC[C@H]2[C@@H]3C[C@H](O)[C@H]4C[C@@H](O)CC[C@]4(C)[C@H]3CC[C@@]21C [Oxy133, reference compound] | 390±10 | < 5 min | 714 ± 5 units/mg protein | 31 ± 7 units/mg protein | – | – | – | – | –
C[C@]12CC[C@@H]3c4ccc(O)cc4CC[C@H]3[C@@H]1CC[C@@H]2O [17β-estradiol, reference compound] | – | – | – | – | −1.95% | no binding to HAP | – | – | –
CCCCCCC(C)(O)C1CCC2C3CC(OC(=O)C(N)CC(=O)NCCOCCOCC(=O)Nc4ccc(OC)c(C(N)=O)c4O)C4CC(O)CCC4(C)C3CCC21C (stereo not shown) [Oxy154] | – | – | 390 ± 68 units/mg protein | 18 ± 2 units/mg protein | – | can bind hydroxyapatite (HAP) | activate Hedgehog (Hh) signaling | induce osteogenic differentiation | 0.63 µM
CCCCCCC(C)(O)C1CCC2C3CC(OC(=O)C(N)CC(=O)NCCOCCOCC(=O)Nc4ccc(OC)c(C(N)=O)c4O)C4CC(OC(=O)C(N)CC(=O)NCCOCCOCC(=O)Nc5ccc(OC)c(C(N)=O)c5O)CCC4(C)C3CCC21C (stereo not shown) [Oxy155] | – | – | 582 ± 8 units/mg protein | 39 ± 2 units/mg protein | 76.68% | can bind hydroxyapatite (HAP) | activate Hedgehog (Hh) signaling | induce osteogenic differentiation | 0.33 µM
